Measurements from US7250433B2, “Tetrazole and oxadiazolone substituted β-amino acid derivatives” (Warner Lambert Company LLC, priority 2003, dated 2007).

Row | melting point | SMILES
1 | 185 °C (dec.) | CC(C)CCC[C@@H](C)CCC(CN)c1nnn[nH]1 (stereo partly drawn)
2 | > 250 °C (dec.) | NCC(CC1CCCCC1)c1nnn[nH]1 (stereo not drawn)
3 | > 250 °C (dec.) | CC(C)C(C)C(CN)c1nnn[nH]1 (stereo not drawn)
4 | 205 °C (dec.) | CCC(C(C)C)C(CN)c1nnn[nH]1 (stereo not drawn)
5 | 194 °C (dec.) | CC(CC1CCCC1)C(CN)c1nnn[nH]1 (stereo not drawn)
6 | 216 °C (dec.) | CC(CC1CCCCC1)C(CN)c1nnn[nH]1 (stereo not drawn)
7 | 163 °C (dec.) | CC(Cc1cccc(C(F)(F)F)c1)C(CN)c1nnn[nH]1 (stereo not drawn)
8 | 152 °C (dec.) | CC(CCc1ccccc1)C(CN)c1nnn[nH]1 (stereo not drawn)
9 | > 250 °C (dec.) | CC(C)C1CC1(CN)c1nnn[nH]1 (stereo not drawn)
10 | > 250 °C (dec.) | CCC(CC)C1CC1(CN)c1nnn[nH]1 (stereo not drawn)
11 | 231 to 235 °C (dec.) | NCC1(C(=O)O)CC12CCCC2 (stereo not drawn)
12 | 206 to 208 °C | Cl.NCC1(c2noc(=O)[nH]2)CC12CCCC2 (stereo not drawn)
13 | 179 to 181 °C (dec.) | Cl.NCC1(c2noc(=O)[nH]2)CC12CCCCC2 (stereo not drawn)
14 | 245 to 246 °C | CC(C)C1CC1(CN)C(=O)O.Cl (stereo not drawn)
15 | 254 to 255 °C | CC(C)CC1CC1(CN)C(=O)O.Cl (stereo not drawn)
16 | 178 to 179 °C | CC(C)C1CC1(CN)c1noc(=O)[nH]1.Cl (stereo not drawn)
17 | 181 to 182 °C | CC(C)CC1CC1(CN)c1noc(=O)[nH]1.Cl (stereo not drawn)
18 | 186 °C (dec.) | CC(Cc1ccc(F)cc1)C(CN)c1nnn[nH]1 (stereo not drawn) [Example 26, 4-(4-Fluoro-phenyl)-3-methyl-2-(1H-tetrazol-5-yl)-butylamine]
